PubChem BioAssay (NCI)
Where “and” joins values, the source holds several entries; their conditions need not be identical. Equal values may be shown once.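 Exposure lasted 48 hours, with cells grown in 96-well plates and compounds tested at five concentrations. Abbreviation: GI50, concentration required for 50% inhibition of growth. TGI marks complete inhibition of growth.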

Assays:
Assay in all cases: NCI-60 cell line screen, 48 h
[1] = system: OVCAR-8 ovarian
[2] = system: HCC-2998 colon
[3] = system: HL-60(TB) leukemia
[4] = system: T-47D breast
[5] = system: HT29 colon
[6] = system: A549 NSCLC
[7] = system: ACHN renal
[8] = system: 786-0 renal
[9] = system: MOLT-4 leukemia
[10] = system: HS 578T breast

| SMILES | GI50 [1] [µM] | TGI [1] [µM] | GI50 [2] [µM] | TGI [2] [µM] | GI50 [3] [µM] | TGI [3] [µM] | GI50 [4] [µM] | TGI [4] [µM] | GI50 [5] [µM] | TGI [5] [µM] | GI50 [6] [µM] | TGI [6] [µM] | GI50 [7] [µM] | TGI [7] [µM] | GI50 [8] | TGI [8] [µM] | GI50 [9] [µM] | TGI [9] [µM] | GI50 [10] [µM] | TGI [10] [µM] |
| --- | --- | --- | --- | --- | --- | --- | --- | --- | --- | --- | --- | --- | --- | --- | --- | --- | --- | --- | --- | --- |
| CS[C@@]1(C(=O)Nc2ccc3[nH]nc(-c4ccc(OC(C)C)nc4)c3c2)CCN(CC(=O)N2CC=C(c3ccc(-c4ncn(C)n4)cc3)CC2)C1 | 9.31 | > 100 | 0.131 | > 100 | 0.0551 | > 100 | 27.9 | > 100 | 0.0368 | > 100 | 1.6 | > 100 | 37.8 | > 100 | 5.27 µM | > 100 | 5.26 | > 100 | – | – |
| O=[N+]([O-])c1cc(/C=N/NS(=O)(=O)c2ccc(F)cc2)c(O)c([N+](=O)[O-])c1 | – | 57.4 | – | > 100 | – | 67.3 | – | – | – | 64.6 | – | > 100 | – | > 100 | – | > 100 | – | 88.6 | – | – |
| CCOC(=O)C(Cc1ccc(OC)cc1)C(=O)OCC | 5.24 | 32.5 | 4.81 | 12.4 | 2.26 | 8.39 | 2.8 | 12.4 | 4.15 | 25.4 | 7.01 | 33.7 | 7.33 | 22.3 | 6.19 µM | 18.7 | 3.2 | 11 | – | – |
| CC[C@H](C)[C@H](NC(=O)C12CC(NC(C)=O)(C1)C2)C(=O)N(C)[C@H](C[C@@H](OC(C)=O)c1nc(C(=O)N[C@@H](Cc2ccccc2)C[C@H](C)C(=O)OC)cs1)C(C)C | 0.519 | > 16.7 | 0.21 | > 16.7 | 0.0522 | 0.21 | – | – | 0.0731 | > 5.52 | 0.907 | > 16.7 | 1.13 | > 16.7 | 0.395 µM | > 16.7 | 0.748 | > 16.7 | 0.505 | > 9.51 |
| Cc1cccc(N=C2NC(=O)C(CC(=O)Nc3ccc(Cl)cc3C)S2)c1 (configuration not stated) | – | > 100 | – | > 100 | – | > 100 | – | – | – | > 100 | – | > 100 | – | > 100 | – | > 100 | – | > 100 | – | – |
| C[C@]12CCCC(=O)C1C[C@H](C(=O)O)CC2 (some centres not stated) | – | > 100 | – | > 100 | – | > 100 | – | – | – | > 100 | – | > 100 | – | > 100 | – | > 100 | – | > 100 | – | – |
| CCOC(=O)C1(Cc2ccc3ccccc3c2)CCCCCN1 (configuration not stated) | – | > 100 | – | 57.3 | – | 52 | – | – | – | 26.9 | – | > 100 | – | > 100 | – | 34.2 | – | 90.7 | – | – |
| CCN(CC)c1ccc2nc3c4ccccc4c(=NC(=O)c4ccccc4-c4c5ccc(N(CC)CC)cc5[o+]c5cc(N(CC)CC)ccc45)cc-3oc2c1 | 2.23 | 12.2 | 1.62 | 3.82 | 2.96 | > 100 | 5.25 | 17.3 | 2.73 | > 32.2 | 1.83 | 5.08 | 3.97 | 13.7 | 2.41 µM | 6.68 | 1.81 | > 100 | – | – |
| Nn1c(N=Nc2c(O)[nH]c3ccccc23)n[nH]c1=S | – | > 100 | – | > 100 | – | > 100 | – | – | – | > 100 | – | > 100 | – | > 100 | – | > 100 | – | > 100 | – | – |
| CC12OC3CC(O1)C1(C=O)C4CCC5(C)C(c6ccc(=O)oc6)CCC5(O)C4CCC1(C3)O2 (configuration not stated) | – | 1.2 | – | 2 | – | 0.474 | – | – | – | 1.3 | – | 0.194 | – | 0.348 | – | 0.246 | – | 0.244 | – | – |
| CCC[CH2][Sn]1([CH2]CCC)[O]C(=O)c2cc(C)ccc2[O]1 | 0.725 | 2.05 | 0.67 | 1.98 | 0.164 | 0.444 | – | – | 1.24 | 2.56 | 1.92 | 3.32 | 0.457 | 1.59 | 0.215 µM | 0.844 | 0.301 | 1.09 | – | – |
| N#CC12Cc3ccc4c(c3-c3cccc(c31)CCN2C(=O)c1ccccc1)OCO4 (configuration not stated) | – | > 100 | – | > 100 | – | > 100 | – | – | – | > 100 | – | > 100 | – | > 100 | – | > 100 | – | > 100 | – | – |
| CC12C(=O)N(CCN)C(=O)C1C1c3ccccc3C2c2ccccc21 (configuration not stated) | – | > 100 | – | > 100 | – | > 100 | – | – | – | > 100 | – | > 100 | – | > 100 | – | > 100 | – | > 100 | – | – |
| Cc1cc(C)c2[s+]snc2c1 | – | > 100 | – | > 100 | – | 44.7 | – | – | – | > 100 | – | > 100 | – | > 100 | – | > 100 | – | > 100 | – | – |
| C=C(C)[C@@H]1CC[C@]2(C)[C@H](C=CC3=C4C[C@@](C)(CO)CC[C@]4(C)CC[C@]32C)[C@@]1(C)CCCN | 2.13 | 4.61 | 0.793 | 2.14 | – | – | – | – | 1.63 | 3.28 | 1.6 | 3.18 | 1.76 | 3.14 | 1.68 µM | 3.44 | – | – | 1.8 | 4.07 |
| CCOc1ccc(NC(=O)CCC(=O)NN)cc1 | – | > 100 | – | > 100 | – | > 100 | – | – | – | > 100 | – | > 100 | – | > 100 | – | > 100 | – | > 100 | – | – |
| NNC(=S)N/N=C/C(Cl)=C(\Cl)C(=O)O | – | > 100 | – | > 100 | – | > 100 | – | – | – | > 100 | – | > 100 | – | > 100 | – | > 100 | – | > 100 | – | – |
| CC[O-].CC[O-].O=C([CH-]C(=O)c1ccccc1)c1ccccc1.O=C([CH-]C(=O)c1ccccc1)c1ccccc1.[Ti+4] | 79.4 | > 100 | > 100 | > 100 | 25.3 | > 100 | – | – | > 100 | > 100 | > 100 | > 100 | > 100 | > 100 | > 100 µM | > 100 | 46.5 | > 100 | – | – |
| N#Cc1ccccc1Nc1ccccc1S | – | 94 | – | – | – | > 100 | – | – | – | > 100 | – | > 100 | – | > 100 | – | 78.3 | – | 33.1 | – | – |
| C[N+]1=c2c3cccc4cccc(c(=O)n2CCC1)c43 | – | 39.9 | – | – | – | 25.3 | – | – | – | 52.5 | – | 96.8 | – | 51.8 | – | > 100 | – | 58.9 | – | – |
| N#CC(C#N)=Cc1ccc(-c2ccc(-c3nc4ccccc4o3)cc2)o1 | 29.9 | > 100 | 47.1 | 96.4 | – | – | 5.04 | 90.1 | 41.2 | > 100 | 28.2 | > 100 | 50.8 | > 100 | 15.8 µM | 34 | 12.1 | > 100 | – | – |
| NC(=O)CCC(NC(=O)C(F)(F)F)C(=O)O (configuration not stated) | – | > 100 | – | > 100 | – | – | – | – | – | > 100 | – | > 100 | – | > 100 | – | > 100 | – | > 100 | – | – |
| O=C1CCC(=O)C(C(=O)CCC(=O)Nc2cccc(Cl)c2)C1 (configuration not stated) | – | > 100 | – | > 100 | – | > 100 | – | – | – | > 100 | – | > 100 | – | > 100 | – | > 100 | – | > 100 | – | – |
| CC(C)NC(=O)O/N=C1\CCC2[C@@H]3CC=C4C[C@@H](OC(=O)NC(C)C)CC[C@]4(C)C3CC[C@]12C (some centres not stated) | – | 3.75 | – | 5.06 | – | 5.37 | – | – | – | 8.87 | – | 5.11 | – | 2.17 | – | 4.01 | – | 4.81 | – | – |
| CCOC(=O)CNC(=O)C(CSC(=O)N(C)O)NC(=O)CCC(N)C(=O)O (configuration not stated) | > 2000 | > 2000 | – | – | > 2000 | > 2000 | – | – | > 2000 | – | > 2000 | > 2000 | > 2000 | > 2000 | > 2000 µM | > 2000 | > 2000 | > 2000 | – | – |
| CC1=NN(c2ccccc2)C(=O)C1N=Nc1ccc(Br)c(C)c1 (configuration not stated) | – | > 100 | – | > 100 | – | > 100 | – | – | – | > 100 | – | > 100 | – | > 100 | – | > 100 | – | > 100 | – | – |
| OC1C2C=CCC1CCC2 (configuration not stated) | – | > 100 | – | – | – | > 100 | – | – | – | > 100 | – | > 100 | – | > 100 | – | > 100 | – | > 100 | – | – |
| CC(C)[O-].CC(C)[O-].[O-]c1cccc2cccnc12.[O-]c1cccc2cccnc12.[Ti+4] | – | > 100 | 50.4 | > 100 | 2.24 | – | – | – | – | – | 41.7 | > 100 | 88.6 | > 100 | 3.38 µM and 4.05 µM | 20.9 | – | – | – | – |
| CCOC(=O)N1CCC(=O)C[C@@H]1C/C=C/P1(=O)O[C@H](c2ccccc2)C(C)N1C(C)C (some centres not stated) | – | > 100 | – | > 100 | – | – | – | – | – | > 100 | – | > 100 | – | > 100 | – | > 100 | – | > 100 | – | – |
| C=C1CC(C/C=C(\C)CC2CC(=C)C(=O)O2)OC1=O (configuration not stated) | – | > 100 | – | > 100 | – | > 100 | – | – | – | > 100 | – | > 100 | – | > 100 | – | > 100 | – | > 100 | – | – |
